According to publication PMC11276849, “A Female-Biased Chemosensory Protein PxutCSP19 in the Antennae of Papilio xuthus Tuned to Host Volatiles and Insecticides” (Insects, 2024):
Read-outs that look alike come from different tables or passages of the source.

Columns and labels:
[1] = target: T1, PxutCSP19-T1 (Papilio xuthus, UniProt A0A194QJK0); assay: Fluorescence competitive binding assay (1-NPN displacement), truncated PxutCSP19-T1; conditions: for inhibition at 20 µM: T1 (17 N-terminal residues truncated), ligand at 20 μM, read-out: F.D. (fluorescent displacement rate of ligands); for Ki: Ki = [IC50]/(1 + [1-NPN]/K1-NPN)
T1 sequence (A0A194QJK0 35-142): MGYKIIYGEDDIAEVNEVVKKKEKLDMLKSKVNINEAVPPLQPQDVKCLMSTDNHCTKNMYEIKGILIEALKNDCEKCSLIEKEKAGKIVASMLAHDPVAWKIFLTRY
Method: (§1) In order to investigate the ligand-binding properties of PxutCSP19 to host odorants and insecticides, we first asked whether this fluorescent probe 1-NPN was available for the binding of PxutCSP19. To calculate the binding ability of PxutCSP19 to 1-NPN, we titrated different final concentrations of 1-NPN (2~20 μM) into Tris-HCl buffer (pH 7.4) containing 2 μM PxutCSP19. The binding constant (K1-NPN) of 1-NPN to this protein was determined with GraphPad Prism 7 (GraphPad Software Inc., San Diego, CA), as previously described. The solution was excited at 337 nm and the emission peak was monitored at 414 nm on an RF-5301PC spectrofluorometer (Shimadzu, Kyoto, Japan) using a quartz micro-cuvette filled with a 100 μL mixture, with 5 nm excitation and emission slit widths. If the host odorant molecules could displace more than 40% of the 1-NPN fluorescence from the binding cavity of PxutCSP19, the compounds would be continuously added up to 36 μM with triplicates. For the binding experiments, each compound would be added into the PxutCSP19/1-NPN (each 2 μM) complex with final concentrations of 2~20 μM. […] We used the Ki values to compare the binding affinities of various ligands with the equation: Ki = [IC50]/(1 + [1-NPN]/K1-NPN), where IC50 represents the ligand concentrations displacing one half of the initial protein/1-NPN fluorescence, and [1-NPN] is the free concentration of 1-NPN at 2 μM.
(§2) To determine the effects of an extended N-terminal sequence (approximately 35 amino acids) on the binding specificity of PxutCSP19 to ligands, we next constructed two truncated PxutCSP19s. Firstly, the front 17 amino acids (i.e., EITIGGIERTMSPGVKS, defined as PxutCSP19-T1) and the front 35 amino acids (i.e., […], defined as PxutCSP19-T2) of the N-terminal region without the signal peptide were truncated, respectively. Secondly, the two truncated ORFs (PxutCSP19-T1: 360 bp and PxutCSP19-T2: 306 bp) of PxutCSP19s were separately amplified using RT–PCR with gene-specific primers (Table S2). After that, the amplified products were sub-cloned into pET-30a (+), i.e., pET-30a (+)/PxutCSP19-T1 and pET-30a (+)/PxutCSP19-T2. Using the above-described methods for the expression and purification of proteins, we obtained two truncated proteins. Furthermore, the binding characteristics of the truncated PxutCSP19s to ligands with high affinities were investigated, representing six host odorants and eight insecticides.

[2] = target: T2, PxutCSP19-T2 (Papilio xuthus, UniProt A0A194QJK0); assay: Fluorescence competitive binding assay (1-NPN displacement), truncated PxutCSP19-T2; conditions: for inhibition at 20 µM: T2 (35 N-terminal residues truncated), ligand at 20 μM, read-out: F.D. (fluorescent displacement rate of ligands); for Ki: Ki = [IC50]/(1 + [1-NPN]/K1-NPN)
T2 sequence (A0A194QJK0 53-142): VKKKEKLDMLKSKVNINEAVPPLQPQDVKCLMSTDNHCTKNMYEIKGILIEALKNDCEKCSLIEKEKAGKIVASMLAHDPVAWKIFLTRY
Method: as §1, §2

[3] = target: PxutCSP19 (Papilio xuthus, UniProt A0A194QJK0); assay: Fluorescence competitive binding assay (1-NPN displacement), wildtype PxutCSP19; conditions: for inhibition at 20 µM: read-out: F.D. (fluorescent displacement rate of ligands), Wildtype (WT), ligand at 20 μM, PxutCSP19/1-NPN each 2 μM, NB = no binding
Sequence of PxutCSP19 (A0A194QJK0 entry or part of it): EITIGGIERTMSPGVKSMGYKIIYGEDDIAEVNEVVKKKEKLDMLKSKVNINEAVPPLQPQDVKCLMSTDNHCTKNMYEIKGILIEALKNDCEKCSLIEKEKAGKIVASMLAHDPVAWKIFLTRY
Excerpt: The open reading frame (ORF) of PxutCSP19 was cloned with a PrimeSTAR®® Max DNA Polymerase (TaKaRa, Liaoning, Dalian, China) and gene-specific primers containing restriction enzyme sites (BamH I and Xho I) (Table S2). The PCR products were detected on a 1.5% (w/v) agarose gel, and the expected bands were cut and purified using a HiPure Gel Pure DNA Mini Kit (Magen, Guangzhou, China). Next, BamH I and Xho I were used to digest the PxutCSP19 products and pET-30a (+) plasmids, followed by purification. A T4 DNA ligase (Thermo Fisher Scientific, Waltham, MA, USA) was applied to the construction of the recombinant plasmids pET-30a (+)/PxutCSP19. After being confirmed by sequencing, the plasmids were transformed into BL21 (DE3) competent cells so as to express recombinant proteins with 1.0 mM isopropyl β-D-thiogalactoside (IPTG). Because this recombinant protein pET-30a (+)/PxutCSP19 was insoluble, we applied a protein denaturation–renaturation approach to purify PxutCSP19 with an affinity chromatography technique, in which the denaturation buffer included 8 M urea and 1.0 mM β-mercaptoethanol.
as §1

Row | Compound | inhibition at 20 µM [1] | Ki ([1]; T1) | IC50 ([1]; T1, read-out: IC50) | inhibition at 20 µM [2] | Ki ([2]; T2) | IC50 ([2]; T2, read-out: IC50) | IC50 [3] | inhibition at 20 µM [3] | Ki ([3]; Wildtype (WT), Ki = [IC50]/(1 + [1-NPN]/K1-NPN)) | IC50 ([3]; Wildtype (WT), ligand up to 20 μM or 36 μM, displacing half of protein/1-NPN fluorescence) | IC50 [1] | IC50 [2]
1 | C=CC(C)(O)CCC=C(C)C (stereo not shown) [Linalool] | 39.8% | 20.8 ± 0.85 µM | 33.1 ± 1.34 µM | 40.3% | 22.8 ± 0.59 µM | 34.6 ± 0.9 µM | 33.8 ± 0.84 µM | > 40% |  |  |  | 
2 | CN(C)C(CSS(=O)(=O)O)CSS(=O)(=O)O [Monosultap] | 54.8% | 11.1 ± 0.46 µM | 17.6 ± 0.73 µM | 61% | 11.8 ± 0.67 µM | 17.9 ± 1.02 µM |  | 53.6% | 11.1 ± 0.66 µM | 16.8 ± 1.01 µM |  | 
3 | CC(C)=CCC/C(C)=C\CO [Nerol] | 39.4% | 21.84 ± 0.02 µM | 34.75 ± 0.03 µM | 40.8% | 22.2 ± 0.56 µM | 33.8 ± 0.85 µM | 34 ± 1.46 µM | > 40% |  |  |  | 
4 | C=C/C(C)=C/CC=C(C)C [Ocimene] | 43.1% | 19.9 ± 1.17 µM | 31.7 ± 1.86 µM | 35.2% | 21.6 ± 0.72 µM | 32.8 ± 1.09 µM | 31.3 ± 1.73 µM | > 40% |  |  |  | 
5 | CCOP(=S)(OCC)O/N=C(\C#N)c1ccccc1 [Phoxim] | 83.1% |  |  | 84.8% |  |  | 2.63 ± 0.12 µM | 87.3% |  |  | 2.66 ± 0.2 µM | 3.16 ± 0.35 µM
6 | C=C(C)[C@H]1Cc2c(ccc3c2O[C@@H]2COc4cc(OC)c(OC)cc4[C@@H]2C3=O)O1 [Rotenone] | 61.8% |  |  | 64.4% |  |  | 9.15 ± 0.76 µM | 67.6% |  |  | 11.12 ± 0.04 µM | 11.3 ± 0.58 µM
7 | COc1cc(C=O)cc(OC)c1O [Syringaldehyde] | 42.7% | 17.7 ± 0.84 µM | 28.1 ± 1.33 µM | 42.2% | 18.8 ± 0.74 µM | 28.6 ± 1.12 µM | 31 ± 0.97 µM | > 40% |  |  |  | 
8 | CC1=CCC(=C(C)C)CC1 [Terpinolene] | 40.1% | 21.14 ± 0.1 µM | 33.64 ± 0.16 µM | 38.5% | 20.8 ± 1.1 µM | 31.6 ± 1.67 µM | 34.1 ± 1.31 µM | > 40% |  |  |  | 
